Data: PubChem BioAssay (NCI)
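Briefly, cells in 96-well plates were exposed to five compound concentrations for 48 h, and endpoints were estimated by linear interpolation. Abbreviation: GI50, concentration required for 50% inhibition of growth. TGI is the concentration that stops growth completely.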

Experiments:
Assay in all cases: NCI tumour cell line growth inhibition, 48 h
[1] = test system: A549 NSCLC
[2] = test system: BT-549 breast
[3] = test system: HL-60(TB) leukemia
[4] = test system: HOP-62 NSCLC
[5] = test system: IGROV1 ovarian
[6] = test system: NCI/ADR-RES ovarian
[7] = test system: OVCAR-5 ovarian
[8] = test system: OVCAR-8 ovarian
[9] = test system: SF-295 CNS
[10] = test system: SK-MEL-2 melanoma

SMILES	GI50 [1] [µM]	TGI [1] [µM]	GI50 [2] [µM]	TGI [2] [µM]	GI50 [3] [µM]	TGI [3] [µM]	GI50 [4] [µM]	TGI [4] [µM]	GI50 [5] [µM]	TGI [5] [µM]	GI50 [6] [µM]	TGI [6] [µM]	GI50 [7] [µM]	TGI [7] [µM]	GI50 [8] [µM]	TGI [8] [µM]	GI50 [9] [µM]	TGI [9] [µM]	GI50 [10] [µM]	TGI [10] [µM]
O=C1c2cccnc2C(=O)c2c1c(C(=O)OCCc1ccccn1)c1ccccn21	0.248	1.56	0.0671	2.11	0.783	5.93	< 0.01	0.326	0.0421	4.73	0.0252	1.15	0.497	10.5	0.0589	2.12	0.342	1.77	0.351	3.47
COc1ccc(C2CC(c3ccc4ccccc4c3)=NN2c2nc(O)c(C3=c4cc(OC)ccc4=NC3=O)s2)cc1 (centres undefined)	0.0612	0.223	0.978	17.5	> 57.9	> 100	0.0633	0.158	0.0641	0.388	1.89	> 100	0.115	1.35	0.0646	1.26	0.0608	0.165	0.178	0.497
Brc1ccc(Nc2nc3ccccc3nc2Nc2ccc(Br)cc2)cc1	0.393	11	2.44	7.98	2.09	5.96	1.43	4.12	1.43	13.5	1.62	10.5	1.03	5.15	0.773	10.8	1.44	4.22	2.26	5.48
O=C(Nc1ccc(I)cc1)c1cccc([N+](=O)[O-])c1O	4.52	> 100	3.01	19	2.96	9.32	6.93	> 100	6.15	> 100	2.94	> 100	18.1	> 100	4.37	> 100	2.39	11.3	2.6	8.79
c1ccc(-c2cn(-c3ccccc3)c(-c3ccccc3)n2)cc1	13.2	26.6	16	30.5	3.07	17.9	2.72	7.88	11.9	25.2	19.6	44.9	19.8	39.7	7.89	20.4	12.9	28.4	13.9	27.2
COc1cc2c3c(n(CCCN4CCCNCC4)c(=O)c2cc1OC)-c1cc2c(cc1C3=O)OCO2	0.322	6.95	2.2	11.5	0.147	0.976	0.558	4.46	1.15	21.5	0.493	6.69	2.69	9.69	0.466	4.22	0.2	2.66	3.7	17.6
O=[N+]([O-])/C=C/c1cc2ccc3ccccc3c2[nH]1	–	4.88	–	4.44	–	5.29	–	4.39	–	1.89	–	6.87	–	4.55	–	> 21	–	5.86	–	2.39
Cn1c(NCC(CN2CCCC2)OC(=O)c2ccccc2)cc(=O)n(C)c1=O (centres undefined)	> 100	> 100	> 100	> 100	–	–	> 100	> 100	> 100	> 100	> 100	> 100	> 100	> 100	> 100	> 100	> 100	> 100	> 100	> 100
NC(=O)CCc1ccccc1Oc1nccc(-c2c(-c3ccc(F)cc3)ncn2C2CCNCC2)n1	> 25	> 25	> 25	> 25	> 25	> 25	> 25	> 25	> 25	> 25	> 25	> 25	> 25	> 25	> 25	> 25	> 25	> 25	> 25	> 25
COc1cc(/C=C/C(=O)c2c(C)nc3ccccc3c2C)ccc1OCCCCOc1cc2c(cc1OC)C(=O)N1CCC[C@H]1C=N2	0.46	4.17	0.188	0.482	0.196	0.514	1.71	6.93	–	–	3.06	40.4	0.528	3.35	0.245	0.703	0.416	1.56	0.414	0.978
NS(=O)(=O)c1ccc(N=C2C(=O)Nc3ccccc32)cc1	–	> 100	–	> 100	–	> 100	–	> 100	–	> 100	–	> 100	–	> 100	–	> 100	–	> 100	–	> 100
Cn1c(=O)c2[nH]c(CCCc3ccc([N+](=O)[O-])cc3)nc2n(C)c1=O	–	> 100	–	> 100	–	–	–	> 100	–	> 100	–	> 100	–	> 100	–	> 100	–	> 100	–	> 100
O=c1[nH]c(F)nc2c1ncn2C1OC(CO)C(O)C1O (centres undefined)	> 100	> 100	> 100	> 100	> 100	> 100	> 100	> 100	> 100	> 100	> 100	> 100	> 100	> 100	> 100	> 100	> 100	> 100	–	–
COc1cc2c(cc1OCCCCn1c(-c3cccs3)nc3ccccc31)N=C[C@@H]1CCCN1C2=O	3.22	> 100	0.417	1.2	5.18	53.4	–	–	0.754	2.86	3.24	13.9	3.27	9.13	2.58	> 100	–	–	1.47	4.68
